Measured values: US11925629B2, “Heterocyclic inhibitors of ERK1 and ERK2 and their use in the treatment of cancer” (Asana Biosciences, LLC, priority 2015, dated 2024)

How the values were obtained:
Format in all cases: cell-based, human
[1] = system: HCT116 (colorectal carcinoma, K Ras G13D) cells; experiment: Cell proliferation (Alamar Blue) assay, HCT116; conditions: Homo sapiens, HCT-116, HCT116 cells
Method in brief: (§1)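 Cells seeded at 5000/well and allowed 16-24 h at 37° C./5% CO2, then exposed to compound (typically 0.0005-10 uM, 3-fold serial dilutions) for 72 h. Viability was read by Alamar Blue fluorescence (ex 540/em 590 nm) after 1-3 h. IC50 came from a variable-slope sigmoidal dose-response fit.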

[2] = system: HT-29 (colorectal carcinoma, B-RafV600E) cells; experiment: Cell proliferation (Alamar Blue) assay, HT-29; conditions: Homo sapiens, HT-29, HT29 cells
Method in brief: as §1

[3] = system: phosphorylation of RSK1(S380) (the downstream target of ERK1/2); experiment: Phospho-RSK1(S380) ELISA assay in HT-29 cells; conditions: Homo sapiens, HT-29, HT29 cells, phospho-RSK1(S380); read-out: Mechanistic Cell Assay RSK1 Phos HT29 IC50
Method in brief: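 IC50 values derive from a variable-slope sigmoidal fit of sandwich-ELISA signal (450 nm) for RSK1 Ser380 phosphorylation. The cells were B-RafV600E HT-29 colorectal line, exposed to serially diluted compound for 2 h after overnight seeding, then lysed at 4° C.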

Structure (SMILES)	IC50 [1] [nM]	IC50 [2] [nM]	IC50 [3] [nM]
Cc1cnc(N[C@H]2CCOC2)nc1-n1cnc(C(=O)N[C@H](CO)c2cccc(Cl)c2)c1 [Compound 192, N—((S)-1-(3-Chlorophenyl)-2-hydroxyethyl)-1-(5-methyl-2-(((S)-tetrahydrofuran-3-yl)amino)pyrimidin-4-yl)-1H-imidazole-4-carboxamide]	> 2500	250 to 500	250 to 500
Cc1cnc(NC2CCOCC2)nc1-n1cnc(C(=O)NC(CO)c2cccc(Cl)c2)c1 (stereo not drawn) [Compound 201, N-(1-(3-chlorophenyl)-2-hydroxyethyl)-1-(5-methyl-2-((tetrahydro-2H-pyran-4-yl)amino)pyrimidin-4-yl)-1H-imidazole-4-carboxamide]	500 to 2500	≤ 100	100 to 250
Cc1cnc(NC2CCOCC2)nc1-n1cnc(C(=O)N[C@H](CO)c2cccc(Cl)c2)c1 [Compound 211, (S)—N-(1-(3-chlorophenyl)-2-hydroxyethyl)-1-(5-methyl-2-((tetrahydro-2H-pyran-4-yl)amino)pyrimidin-4-yl)-1H-imidazole-4-carboxamide]	100 to 250	≤ 100	≤ 100
O=C(Nc1cnn(-c2ccnc(Nc3ccccc3)n2)c1)N[C@H](CO)c1cccc(Cl)c1 [Example 12, (S)-1-(1-(3-chlorophenyl)-2-hydroxy-ethyl)-3-(1-(2-(phenyl-amino)pyrimidin-4-yl)-1H-pyrazol-4-yl) urea]	> 2500	> 2500	> 2500
CN(C(=O)Nc1cnn(-c2ccnc(NC3CC3)n2)c1)[C@H](CO)c1ccccc1 [Example 18, (S)-3-(1-(2-(cyclopropyl-amino)pyrimidin-4-yl)-1H-pyrazol-4-yl)-1-(2-hydroxy-1-phenylethyl)-1-methylurea]	> 2500	> 2500	> 2500
O=C(Nc1cnn(-c2ccnc(Nc3ccc4c(c3)OCO4)n2)c1)N[C@H](CO)c1cccc(Cl)c1 [Example 21, (S)-1-(1-(2-(benzo[d][1,3]dioxol-5-ylamino)-pyrimidin-4-yl)-1H-pyrazol-4-yl)-3-(1-(3-chlorophenyl)-2-hydroxyethyl) urea]	> 2500	> 2500	> 2500
Cc1cnc(Nc2cccnc2)nc1-n1cc(NC(=O)N[C@H](CO)c2cccc(Cl)c2)cn1 [Example 23, (S)-1-(1-(3-chlorophenyl)-2-hydroxy-ethyl)-3-(1-(5-methyl-2-(pyridin-3-yl-amino)pyrimidin-4-yl)-1H-pyrazol-4-yl)urea]	> 2500	500 to 2500	> 2500
Cc1cnc(Nc2ccc(F)cc2Cl)nc1-n1ccc(C(=O)NC(CO)c2cccc(Cl)c2)c1 (stereo not drawn) [Example 31, 1-(2-((2-chloro-4-fluorophenyl)amino)-5-methyl-pyrimidin-4-yl)-N-(1-(3-chlorophenyl)-2-hydroxy-ethyl)-1H-pyrrole-3-carboxamide]	500 to 2500	250 to 500	500 to 2500
Cc1cnc(Nc2ccc(F)cc2Cl)nc1-n1ccc(C(=O)NC(CO)c2ccccc2)c1 (stereo not drawn) [Example 32, 1-(2-((2-chloro-4-fluorophenyl)amino)-5-methyl-pyrimidin-4-yl)-N-(2-hydroxy-1-phenylethyl)-1H-pyrrole-3-carboxamide]	> 2500	> 2500	500 to 2500
C#Cc1cccc(Nc2nccc(-n3cc(NC(=O)N[C@H](CO)c4cccc(Cl)c4)cn3)n2)c1 [Example 38, (S)-1-(1-(3-chlorophenyl)-2-hydroxy-ethyl)-3-(1-(2-((3-ethynyl-phenyl)amino)pyrimidin-4-yl)-1H-pyrazol-4-yl)urea]	> 2500	> 2500	> 2500
Cc1cnc(Nc2ccc3c(c2)OCO3)nc1-n1ccc(C(=O)NC(CO)c2cccc(Cl)c2)c1 (stereo not drawn) [Example 42, 1-(2-(benzo[d][1,3]dioxol-5-ylamino)-5-methyl-pyrimidin-4-yl)-N-(1-(3-chloro-phenyl)-2-hydroxy-ethyl)-1H-pyrrole-3-carboxamide]	250 to 500	250 to 500	500 to 2500
Cc1cnc(Nc2ccc3c(c2)OCO3)nc1-n1ccc(C(=O)NC(CO)c2ccccc2)c1 (stereo not drawn) [Example 47, 1-(2-(benzo[d][1,3]dioxol-5-ylamino)-5-methyl-pyrimidin-4-yl)-N-(2-hydroxy-1-phenylethyl)-1H-pyrrole-3-carboxamide]	250 to 500	100 to 250	250 to 500
Cc1cnc(Nc2ccc3c(c2)OCO3)nc1-n1cnc(C(=O)N[C@H](CO)c2cccc(Cl)c2)c1 [Example 48, (S)-1-(2-(benzo[d][1,3]dioxol-5-ylamino)-5-methyl-pyrimidin-4-yl)-N-(1-(3-chloro-phenyl)-2-hydroxy-ethyl)-1H-imidazole-4-carboxamide]	500 to 2500	250 to 500	250 to 500
Cc1cnc(Nc2ccc3c(c2)OCO3)nc1-n1ccc(C(=O)NC(CO)c2cc(Cl)cc(Cl)c2)c1 (stereo not drawn) [Example 58, 1-(2-(benzo[d][1,3]dioxol-5-ylamino)-5-methyl-pyrimidin-4-yl)-N-(1-(3,5-dichloro-phenyl)-2-hydroxy-ethyl)-1H-pyrrole-3-carboxamide]	> 2500	500 to 2500	500 to 2500
Cc1cnc(Nc2ccc3c(c2)OCO3)nc1-n1ccc(C(=O)N[C@H](CO)Cc2ccccc2)c1 [Example 59, (S)-1-(2-(benzo[d][1,3]dioxol-5-ylamino)-5-methyl-pyrimidin-4-yl)-N-(1-hydroxy-3-phenyl-propan-2-yl)-1H-pyrrole-3-carboxamide]	250 to 500	250 to 500	250 to 500
Cc1cnc(Nc2ccc3c(c2)OCO3)nc1-n1ccc(C(=O)N[C@H](CO)c2ccccc2)c1 [Example 60, (S)-1-(2-(benzo[d][1,3]dioxol-5-ylamino)-5-methyl-pyrimidin-4-yl)-N-(2-hydroxy-1-phenylethyl)-1H-pyrrole-3-carboxamide]	100 to 250	≤ 100	≤ 100
Cc1cnc(Nc2ccc3c(c2)OC(F)(F)O3)nc1-n1ccc(C(=O)NC(CO)c2cccc(Cl)c2)c1 (stereo not drawn) [Example 62, N-(1-(3-chloro-phenyl)-2-hydroxy-ethyl)-1-(2-((2,2-difluoro-benzo[d][1,3]dioxol-5-yl)amino)-5-methyl-pyrimidin-4-yl)-1H-pyrrole-3-carboxamide]	500 to 2500	500 to 2500	500 to 2500
Cc1cnc(Nc2ccc3c(c2)OC(F)(F)O3)nc1-n1ccc(C(=O)NC(CO)c2ccccc2)c1 (stereo not drawn) [Example 63, 1-(2-((2,2-difluoro-benzo[d][1,3]dioxol-5-yl)amino)-5-methyl-pyrimidin-4-yl)-N-(2-hydroxy-1-phenylethyl)-1H-pyrrole-3-carboxamide]	500 to 2500	500 to 2500	250 to 500
COC[C@@H](NC(=O)c1ccn(-c2nc(Nc3ccc4c(c3)OCO4)ncc2C)c1)c1ccccc1 [Example 64, (S)-1-(2-(benzo[d][1,3]dioxol-5-ylamino)-5-methyl-pyrimidin-4-yl)-N-(2-methoxy-1-phenylethyl)-1H-pyrrole-3-carboxamide]	500 to 2500	250 to 500	500 to 2500
Cc1cnc(Nc2ccc3occc3c2)nc1-n1ccc(C(=O)NC(CO)c2ccccc2)c1 (stereo not drawn) [Example 65, 1-(2-(benzo-furan-5-ylamino)-5-methyl-pyrimidin-4-yl)-N-(2-hydroxy-1-phenylethyl)-1H-pyrrole-3-carboxamide]	100 to 250	100 to 250	≤ 100
O=C(NC(CO)c1ccccc1)c1ccn(-c2nc(Nc3ccc4c(c3)OCO4)ncc2F)c1 (stereo not drawn) [Example 66, 1-(2-(benzo[d][1,3]dioxol-5-ylamino)-5-fluoro-pyrimidin-4-yl)-N-(2-hydroxy-1-phenylethyl)-1H-pyrrole-3-carboxamide]	500 to 2500	250 to 500	100 to 250
O=C(NC(CO)c1ccccc1)c1ccn(-c2nc(Nc3ccccc3Cl)ncc2F)c1 (stereo not drawn) [Example 67, 1-(2-((2-chloro-phenyl)amino)-5-fluoro-pyrimidin-4-yl)-N-(2-hydroxy-1-phenylethyl)-1H-pyrrole-3-carboxamide]	> 2500	> 2500	500 to 2500
Cc1cnc(Nc2ccc3c(c2)OC(F)(F)O3)nc1-n1ccc(C(=O)N[C@H](CO)c2ccc(F)c(Cl)c2)c1 [Example 69, (S)-N-(1-(3-chloro-4-fluoro-phenyl)-2-hydroxy-ethyl)-1-(2-((2,2-difluoro-benzo[d][1,3]dioxol-5-yl)amino)-5-methyl-pyrimidin-4-yl)-1H-pyrrole-3-carboxamide]	500 to 2500	500 to 2500	500 to 2500
Cc1cnc(Nc2ccc3c(c2)OCO3)nc1-n1ccc(C(=O)NC(CO)c2cccc(Cl)c2F)c1 (stereo not drawn) [Example 70, 1-(2-(benzo[d][1,3]dioxol-5-ylamino)-5-methyl-pyrimidin-4-yl)-N-(1-(3-chloro-2-fluorophenyl)-2-hydroxy-ethyl)-1H-pyrrole-3-carboxamide]	500 to 2500	> 2500	250 to 500
O=C(NC(CO)c1ccccc1)c1ccn(-c2ccnc(Nc3ccccc3)c2)c1 (stereo not drawn) [Example 71, N-(2-hydroxy-1-phenylethyl)-1-(2-(phenylamino)pyridin-4-yl)-1H-pyrrole-3-carboxamide]	> 2500	500 to 2500	250 to 500
O=C(N[C@H](CO)c1cccc(Cl)c1)c1cn(-c2ccnc(Nc3ccccc3)c2)cn1 [Example 72, (S)-N-(1-(3-chlorophenyl)-2-hydroxy-ethyl)-1-(2-(phenylamino)pyridin-4-yl)-1H-imidazole-4-carboxamide]	> 2500	500 to 2500	≤ 100
